Measured values reported in the Kinase Knowledgebase extract (Sharma et al. 2016).

Biological target: EGFR (human) (UniProt P00533)
Sequence (P00533 whole entry, looked up): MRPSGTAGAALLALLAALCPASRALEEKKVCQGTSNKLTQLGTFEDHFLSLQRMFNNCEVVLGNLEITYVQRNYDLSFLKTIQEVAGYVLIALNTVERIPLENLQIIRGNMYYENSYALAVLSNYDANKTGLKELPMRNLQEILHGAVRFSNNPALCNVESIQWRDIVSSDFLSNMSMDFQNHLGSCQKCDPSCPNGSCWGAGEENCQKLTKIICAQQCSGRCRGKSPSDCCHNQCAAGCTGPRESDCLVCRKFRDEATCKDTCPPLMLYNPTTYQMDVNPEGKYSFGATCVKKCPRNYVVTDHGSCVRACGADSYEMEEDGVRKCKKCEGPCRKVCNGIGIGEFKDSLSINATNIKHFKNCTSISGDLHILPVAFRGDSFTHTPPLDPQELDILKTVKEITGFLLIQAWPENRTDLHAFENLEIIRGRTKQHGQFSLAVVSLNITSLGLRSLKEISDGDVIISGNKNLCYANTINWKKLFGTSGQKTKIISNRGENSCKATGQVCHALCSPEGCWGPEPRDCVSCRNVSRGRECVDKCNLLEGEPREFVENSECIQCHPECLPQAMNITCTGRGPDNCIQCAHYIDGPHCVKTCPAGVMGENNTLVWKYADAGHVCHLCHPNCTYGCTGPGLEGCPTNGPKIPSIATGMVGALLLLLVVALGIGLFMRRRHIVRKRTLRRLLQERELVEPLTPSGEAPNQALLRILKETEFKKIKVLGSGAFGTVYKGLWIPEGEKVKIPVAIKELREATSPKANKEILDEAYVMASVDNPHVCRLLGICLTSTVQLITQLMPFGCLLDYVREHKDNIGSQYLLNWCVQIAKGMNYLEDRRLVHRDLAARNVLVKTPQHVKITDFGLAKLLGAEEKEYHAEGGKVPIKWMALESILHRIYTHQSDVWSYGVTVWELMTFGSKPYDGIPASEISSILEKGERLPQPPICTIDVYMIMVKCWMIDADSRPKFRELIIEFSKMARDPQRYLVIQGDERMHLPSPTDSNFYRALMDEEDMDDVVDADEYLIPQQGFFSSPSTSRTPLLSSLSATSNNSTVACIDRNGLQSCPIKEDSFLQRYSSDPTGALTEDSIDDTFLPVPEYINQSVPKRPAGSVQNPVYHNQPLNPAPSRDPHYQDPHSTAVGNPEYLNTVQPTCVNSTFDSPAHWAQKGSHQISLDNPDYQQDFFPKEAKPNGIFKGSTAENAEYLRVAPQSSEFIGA

Compound | IC50
COc1cc2ncnc(Nc3ccc(Br)cc3)c2cc1OC | 0.000977 µM
Nc1cc2ncnc(Nc3ccccc3Br)c2cn1 | 0.245 µM
CN(C)c1cccc(Nc2ncnc3cc(N)ncc23)c1 | 1.82 µM
CC(=O)Nc1cc2ncnc(Nc3cccc(Br)c3)c2cn1 | 0.0295 µM
Nc1ccc2c(Nc3ccccc3)ncnc2c1 | 0.1 µM
COc1cc2ncnc(Nc3cccc(Br)c3)c2cn1 | 0.0398 µM
Fc1cc2ncnc(Nc3cccc(Br)c3)c2cn1 | 0.0132 µM
COc1cccc(Nc2ncnc3cc(N)ncc23)c1 | 0.132 µM
Nc1cc2ncnc(Nc3cccc(F)c3)c2cn1 | 0.851 µM
Nc1cc2ncnc(Nc3cccc([N+](=O)[O-])c3)c2cn1 | 0.0407 µM
